Source: ChEMBL document CHEMBL4364294 (J Med Chem, 2019)
Values after ≈ are worked out from the molar mass of the structure shown.

Legend:
[1] = Intrinsic clearance in human liver microsomes; format: ADME, Microsome; settings: read-out: CLH
[2] = Aqueous solubility of the compound at pH 1; format: physicochemical
[3] = Aqueous solubility of the compound at pH 6.5; format: physicochemical
[4] = Aqueous solubility of the compound at pH 7.4; format: physicochemical

predicted hepatic clearance [1]: 0.494 L/h/kg | solubility [2]: 400 µM (≈ 161 µg/mL) | solubility [3]: 65 µM (≈ 26.1 µg/mL) | solubility [4]: 56 µM (≈ 22.5 µg/mL)
SMILES: O=C(N[C@H]1CC[C@@H](C(O)CC2c3ccccc3-c3cncn32)CC1)c1ccccc1 (some centres undefined)
